We go through 2 molecules from patent publication US11426367B2, “Methods of treating substance abuse” (Perception Neuroscience, Inc., priority 2018, dated 2022).

Each structure is given as a SMILES string.

The test system of data set [1] is social defeat stress mice. Briefly: Forced swimming test (FST), social defeat stress model. It counts as in vivo. The following applies: 10 mg/kg i.p. As to the method:
A social defeat stress model of depression was prepared by bringing C57/B6 male mice into contact with ICR male mice (large aggressive mice) for 10 consecutive days to apply a stress called a “social defeat stress” in accordance with the previous report (Non Patent Literature 19). […] Specifically, an increase in immobility time was found in each of a tail suspension test (TST) and a forced swimming test (FST).
The preparation of the animal model of depression and the administration of the agent were specifically performed as described below (FIG. 3A). Male C57/B6 mice (7-week-old, Japan SLC, Inc., Hamamatsu, Japan) and ICR mice (9-week-old, Japan SLC, Inc., Hamamatsu, Japan) were used. The mice were given free access to water and feed. A social defeat stress was applied by housing one C57/B6 mouse with one ICR mouse for 10 days.
The antidepressant effects of the agent were investigated by behavioral tests such as the TST, the PST, the LMT, and a 1% sucrose preference test (SPT) (FIG. 3A). The 1% sucrose preference test (SPT) was performed on 1 day and 6 days after the injection of ketamine. Each of the TST and the PST was performed on 2 days and 7 days after the injection of ketamine. The TST was performed as described below. First, the mice were taken out from cages, and then a small piece of an adhesive tape was bonded onto a portion approximately 2 cm away from the tip of the tail of the mice. A small hole was opened in the small piece, and the mice were each fixed upside down on a hook through the small hole. The immobility time of each mouse was recorded for 10 minutes. Mice were considered immobile only when they hung passively and completely motionless. The immobility time increases in a depressive state. The PST was performed as described below. First, the mice were placed individually in a cylinder (diameter: 23 cm; height: 31 cm) containing 15 cm of water, maintained at 22 to 24 deg C. The mice were tested in an automated forced-swimming apparatus using SCANET MV-40 ([…] Co., Ltd., Toyama, Japan). The immobility time was calculated as a value obtained by subtracting active time from total time, using the analysis software of the apparatus. Cumulative immobility time was recorded over 6 minutes during a test period. The LMT was performed as described below. First, the mice were placed in experimental cages (length×width×height: 560×560×330 mm). The locomotor activity of the mice was counted with SCANET MV-40, and the cumulative exercise of the mice was recorded for 60 minutes. The cages were cleaned between testing session. The immobility time increases in a depressive state. […] A spine density was quantitatively evaluated by observation with a KEYENCE microscope (BZ-9000, Osaka, Japan).

Data set [2] relates to rewarding effects of morphine. Briefly: Morphine-induced conditioned place preference. In kind it is in vivo, mice. The following applies: for Morphine CPP, dose blocking the rewarding effects of morphine: Table 11, Present study. As to the method: The methods for conditioned place preference and evaluation of R-ketamine were conducted using the general methods of Suzuki et al. (2000). The general design was to dose mice with either saline+saline, saline+morphine, or R-ketamine+morphine and evaluate their preference for the morphine-associated place.
Male ddY mice (20-23 g) were obtained from Tokyo Experimental Animals Inc. (Tokyo, Japan). The ddY mice were bred in a closed colony. The mice were housed at a temperature of 22 f 1° C. with a 12-h light-dark cycle (light on 8:30 a.m. to 8:30 p.m.). Food and water were available ad libitum.
Place conditioning was conducted as described previously, using a minor modification of a biased procedure according to Suzuki et al. (2000). The apparatus consisted of a shuttlebox (15×30×15 cm: w×l×h) made of an acryl-resin board. The box was divided into two compartments of equal size by means of a sliding partition. One compartment was white with a textured floor; the other was black with a smooth floor. For conditioning mice were immediately conditioned to the white compartment following drug injection and to the black compartment following vehicle injection.
Conditioning sessions were conducted once daily for 6 consecutive days. […] Preference for a particular place was assessed in the drug-free state after placing the animals on the neutral platform and allowing them free access to both compartments. The time spent in each compartment during a 900-sec session was then measured automatically in a blinded fashion by two infrared beam sensors (KN-80, Natsume Seisakusyo, Tokyo, Japan) on the covers (3 cm from the center and the side) of the white and black compartments. […]
Conditioning scores represent the time spent in the drug-paired place minus the time spent in the vehicle-paired place, and are expressed as the mean±S.E.M. Behavioral data were evaluated statistically with a one-way analysis of variance (ANOVA) followed by Dunnett's test to determine whether individual doses produced significant conditioning.

The test system of data set [3] is cerebral metabolic rates of glucose. To be noted: healthy volunteers, Non Patent Literature 13, cited from earlier work; for cerebral metabolic rates of glucose (CMRglu), PET: S(+)-ketamine i.v. 15 mg for 5 min then 0.014 to 0.02 mg/kg/min for 53 min, R(−)-ketamine equimolar doses.
The next data set concerns Control C57/B6 mice. Briefly: Prepulse inhibition test in control mice. The following applies: control mice, 5, 10 or 20 mg/kg.
The subject of data set [4] is medial forebrain bundle self-stimulation in rats. Briefly: Intracranial self-stimulation (ICSS), frequency-rate procedure. The following applies: for ICSS, anhedonia: doses 10, 30 mg/kg, Present study; for ICSS frequency-rate response curve: rats, 3, 10 or 30 mg/kg i.p. 2 hours prior to test session, vs saline vehicle.
[5] abbreviates: 3 mg/kg i.p. 2 hours prior to test session, 10 rats.
The mark [6] stands for this setting: 10 mg/kg i.p. 2 hours prior to test session, 10 rats.
Setting [7] is: 30 mg/kg i.p. 2 hours prior to test session, 10 rats.
The mark [8] stands for this setting: baseline session before dosing on the 3 mg/kg test day, 10 rats.
Setting [9] is: baseline session before dosing on the 10 mg/kg test day, 10 rats.
Where [10] appears, read: baseline session before dosing on the 30 mg/kg test day, 10 rats.

Protocol for Control C57/B6 mice: PP69, PP73, PP77, and PP81 mean that stimuli at 69, 73, 77, and 81 dB for more than 20 milliseconds were presented 100 milliseconds before a 110-dB pulse, respectively. Data analysis was performed by Wilks Lambda, which is multivariate analysis of variance (Example 3).
The prepulse inhibition test was performed using a startle response system (SR-LAB, SanDiego Instruments, San Diego, Calif., United States). The analysis of the results of prepulse inhibition was performed by multivariate analysis of variance (MANOVA), followed by a least significant difference test (LSD test). Data are presented as the mean plus minus standard error of the mean (n=10 to 12 mice/group). *p<0.05 and p<0.01 indicate significant differences as compared to a group injected with saline.

Consider `CN[C@]1(c2ccccc2Cl)CCCCC1=O` [S(+)-ketamine], for which the “immobility time in the FST” value was “markedly reduced the immobility time” in data set [1] (2 days after injection) and “significantly reduced the immobility time” in data set [1] (7 days after injection). Besides, in data set [2], the “Morphine CPP, dose blocking the rewarding effects of morphine” value stood at 10 mg/kg. Also, the “cerebral metabolic rates of glucose (CMRglu), PET” value in data set [3] is reported as “increased cerebral metabolic rates of glucose”. Also, the prepulse inhibition entry with Control C57/B6 mice is “disrupted prepulse inhibition in a dose-dependent manner”. Moreover, the “M50, Test, mean log M50 frequency (SEM)” value in data set [4] (setting [5]) is 1.98 log/Hz; in data set [4] (setting [7]), 2.07 log/Hz. The “Threshold (T0), Test, mean log T0 frequency (SEM)” value in data set [4] (setting [5]) worked out at 1.88 log/Hz; in data set [4] (setting [6]), 1.90 log/Hz; in data set [4] (setting [7]), 1.95 log/Hz. Besides, in data set [4] (15 mg/kg (so in the source) i.p., 10 rats), the “M50, Test, mean log M50 frequency” value came to 2.00 log/Hz. The “M50, Baseline, mean log M50 frequency (SEM)” value was 1.97 (0.02) log/Hz in data set [4] (setting [8]); 1.97 (0.01) log/Hz in data set [4] (baseline session before dosing on the 15 mg/kg (so in the source) test day, 10 rats); 1.98 (0.01) log/Hz in data set [4] (setting [10]). The “Threshold (T0), Baseline, mean log T0 frequency (SEM)” value was 1.86 (0.02) log/Hz in data set [4] (setting [8]), 1.87 (0.02) log/Hz in data set [4] (setting [9]) and 1.87 (0.02) log/Hz in data set [4] (setting [10]). For the same molecule, the “ICSS, anhedonia” value in data set [4] is 10, 30 anhedonia. Further, in data set [4], the “ICSS frequency-rate response curve” value is given as “significant downward shift in the stimulation-frequency curve”.

`CN[C@@]1(c2ccccc2Cl)CCCCC1=O.Cl` [R(−)-ketamine]: the “immobility time in the FST” value is recorded as “markedly reduced the immobility time” in data set [1] (2 days after injection) and “significantly reduced the immobility time” in data set [1] (7 days after injection). Further, in data set [2] (10 mg/kg i.p. co-dosed with morphine 5 mg/kg i.p., F(2,29)=2.2, p=0.064), the “conditioned place preference induced by morphine” value is given as “trend toward significant attenuation”. Further, the “Morphine CPP, dose blocking the rewarding effects of morphine” value in data set [2] is 10 mg/kg. The psychotic symptoms entry in data set [3] (doses equimolar to psychotomimetic doses of S(+)-ketamine) was “did not produce psychotic symptoms”. Further, in data set [3], the “cerebral metabolic rates of glucose (CMRglu), PET” value is “tended to decrease CMRglu”. In the data set on Control C57/B6 mice, the prepulse inhibition result is “did not disrupt prepulse inhibition”. The figures for the “M50, Test, mean log M50 frequency (SEM)” value in data set [4] (setting [5]), in data set [4] (setting [6]) and in data set [4] (setting [7]) were 1.98 (0.01) log/Hz, 2.02 (0.02) log/Hz and 1.99 (0.02) log/Hz, respectively. The “Threshold (T0), Test, mean log T0 frequency (SEM)” value in data set [4] (setting [5]) is 1.88 (0.02) log/Hz; in data set [4] (setting [6]), 1.93 (0.03) log/Hz; in data set [4] (setting [7]), 1.90 (0.02) log/Hz. Also, the “M50, Baseline, mean log M50 frequency (SEM)” value was 2.00 (0.02) log/Hz in data set [4] (setting [8]), 2.00 (0.02) log/Hz in data set [4] (setting [9]) and 1.98 (0.02) log/Hz in data set [4] (setting [10]). The “Threshold (T0), Baseline, mean log T0 frequency (SEM)” value is reported as 1.91 (0.02) log/Hz in data set [4] (setting [8]), 1.91 (0.03) log/Hz in data set [4] (setting [9]) and 1.89 (0.02) log/Hz in data set [4] (setting [10]). Moreover, the “ICSS, anhedonia” value in data set [4] is listed as 10, 30 - no anhedonia. Moreover, in data set [4], the “ICSS frequency-rate response curve” value is recorded as “did not significantly alter behavior of rats”.
